Source: patent US20220193085A1, “METHODS OF THROMBOPROPHYLAXIS” (JANSSEN PHARMACEUTICALS, INC., priority 2020, published 2022)
“And” between values parts separate entries of the source, which are not always exact repeats. Equal entries are not always repeated.

How the values were obtained:
[1] = UNIVERSE study: population PK and steady-state exposure of rivaroxaban in post-Fontan pediatric patients
Protocol: Rivaroxaban was administered twice daily (BID) in an open-label fashion as a 0.1% (1 mg/mL) oral suspension based on weight as shown in Table 2 (not related to prandial state).
Blood samples were collected for PK (i.e., plasma rivaroxaban concentrations) and full PD (prothrombin time [PT], activated partial thromboplastin time [aPTT], and anti-factor Xa activity) assessments on the first day of dosing between 0.5 to 1.5 hours and again between 1.5 to 4.0 hours postdose. Additional samples were collected on Day 4, just prior to rivaroxaban administration (PK, PT, aPTT) and again between 0.5 to 1.5 hours (PK, PT, aPTT), 1.5 to 4.0 hours (PK, PT, aPTT), and 6.0 to 8.0 hours (PK and full PD) postdose. At Month 3, samples were collected just prior to rivaroxaban dosing (PK and full PD) and at 0.5 to 1.5 hours postdose (PK, PT, aPTT) and 2.5 to 4 hours postdose (PK, PT, aPTT). An additional random sample (PK, PT, and aPTT) was collected at Month 12.
In Part B, blood samples were collected for assessment of PT and aPTT before the first dosing; PK and full PD samples were collected between 0.5 to 1.5 hours and again between 1.5 to 4.0 hours after the first dose. At Month 3, PK and full PD samples were collected just prior to rivaroxaban administration and again between 0.5 to 1.5 hours, and 2.5 to 4.0 hours postdose. An additional random sample (PK, PT, and aPTT) was collected at Month 12.
Blood samples for PK or PD assays were centrifuged, and the resulting plasma samples were frozen and stored below −15° C. until analyzed. Rivaroxaban plasma concentrations were determined using the validated liquid chromatography/mass spectrometry/mass spectrometry (LC-MS/MS) method with a lower limit of quantitation (LLOQ) of 0.5 μg/L. The pharmacodynamic effects of rivaroxaban were assessed by evaluation of prothrombin time (PT), activated partial thromboplastin time (aPTT), and anti-Factor Xa activity (AXA).
Patients in Part A received their first dose of rivaroxaban oral suspension on Day 1 (on site) and then continued taking rivaroxaban twice daily for 12 days (+9 days) to achieve steady state. PK and PD samples were collected on Day 1 and Day 4 (+2 days) of rivaroxaban administration (Table 3).
Part A, individual empirical Bayesian post-hoc PK parameters were derived using the existing population PK model from the Einstein Jr program (with the NONMEM option: $ESTIMATION MAXEVAL=0).
The population PK model used for the rivaroxaban PK profile evaluation was based on the Einstein Jr program. The pharmacokinetics of rivaroxaban were described by a linear two-compartment model with first-order oral absorption and first-order elimination from the central compartment with the absorption rate constant (KA), apparent clearance of the central compartment (CL/F), apparent central volume of distribution (Vc/F), apparent peripheral volume of distribution (Vp/F), and transport rate between the central and peripheral compartments (CI) as structural model parameters. CL/F, Q/F, Vp/F, and Vc/F were fig. allometrically scaled with body weight. Inter-individual variability (IIV) was identified for KA and CL/F. Residual error was described by a proportional error model.

[2] = UNIVERSE adverse events, serious adverse events and treatment discontinuation; type: in vivo, pediatric patients
Source text: Other safety outcomes: Any adverse events and serious adverse events (SAES).

[3] = UNIVERSE primary efficacy outcome: any thrombotic event (CIAC adjudicated); type: in vivo, pediatric patients; settings: Part A N=12; up to end of treatment; full analysis set
[4] = Benefit-risk assessment: excess number of events per 1,000 subjects, Part B rivaroxaban vs aspirin
Protocol: Benefit-risk balance was assessed using excess number of events defined as the absolute proportion difference between the Part B rivaroxaban and aspirin groups scaled to 1,000 subjects to reflect benefits and risks on a population level.

[5] = UNIVERSE Part A, weight-based dose regimen BID, N=12
[6] = UNIVERSE all patients, weight-based dose regimen BID, N=76
[7] = full UNIVERSE data-set, population PK model
[8] = full UNIVERSE data-set, subject with body weight of 15 kg
[9] = Part A N=12, treatment-emergent, safety set
[10] = Part B rivaroxaban N=64, aspirin N=34, safety set
[11] = Part B rivaroxaban N=64, aspirin N=34, treatment-emergent, safety set
[12] = Part B rivaroxaban N=64, aspirin N=34, up to end of treatment, full analysis set
[13] = Part B rivaroxaban minus aspirin, up to end of treatment, full analysis set
[14] = Part B rivaroxaban vs aspirin, negative values favor rivaroxaban
[15] = Part B rivaroxaban vs aspirin, positive values favor aspirin
[16] = for 1,000 subjects treated with rivaroxaban

O=C(NC[C@H]1CN(c2ccc(N3CCOCC3=O)cc2)C(=O)O1)c1ccc(Cl)s1 [Rivaroxaban, 5-chloro-N-({(5S)-2-oxo-3-[4-(3-oxo-4-morpholinyl)phenyl]-1,3,oxazolidin-5-yl}methyl)-2-thiophenecarboxamide]
Individual values for AUCss,24h, Cmax,ss and Ctrough,ss vs adult reference range ([1]; UNIVERSE Part A): within the adult reference range | AUC24h,ss geometric mean (90% CI) [1, 5]: 1698 ng·h/mL | AUC24h,ss median (range) [1, 5]: 1718 ng·h/mL | Cmax,ss median (range) [1, 5]: 121.8 ng/mL | Ctrough,ss geometric mean (90% CI) [1, 5]: 28.6 ng/mL | Ctrough,ss median (range) [1, 5]: 29 ng/mL | AUC24h,ss geometric mean (90% CI) [1, 6]: 1440 ng·h/mL | Cmax,ss geometric mean (90% CI) [1, 6]: 109.0 ng/mL | Cmax,ss median (range) [1, 6]: 113.3 ng/mL | Ctrough,ss geometric mean (90% CI) [1, 6]: 22.8 ng/mL | Ctrough,ss median (range) [1, 6]: 23.2 ng/mL | Body weight exponent for Vc/F [1, 7]: 1.20 | First-order absorption rate constant [1, 7]: 1.12 h⁻¹ | CL/F (population PK estimate) [1, 8]: 3.30 L/h | Q/F (population PK estimate) [1, 8]: 1.09 L/h | Vc/F (population PK estimate) [1, 8]: 17.6 L | AEs related to Study Agent, n (%) ([2]; Part A N=12, safety set): 3 (25.0%) | SAEs related to Study Agent, n (%) ([2]; Part A N=12, safety set): 0 | TEAEs resulting in Permanent Discontinuation of Study Agent, n (%) ([2]; Part A N=12, safety set): 0 | Adverse event: Pleural Effusion, % of participants [2, 9]: (25%) | Adverse event: Pleural Effusion, n (%) [2, 9]: 3 | All TESAEs (subjects with 1 or more serious adverse events), % of subjects [2, 9]: (50%) | Serious adverse event: Infections, % of participants [2, 9]: (25%) | Serious adverse event: Infections, n (%) [2, 9]: 3 | Serious adverse event: Pleural Effusion, % of participants [2, 9]: (17%) | Serious adverse event: Pleural Effusion, n (%) [2, 9]: 2 | Serious adverse event: Respiratory, Thoracic, and Mediastinal Disorders, % of participants [2, 9]: (17%) | Serious adverse event: Respiratory, Thoracic, and Mediastinal Disorders, n (%) [2, 9]: 2 | TEAE: Gastrointestinal Disorders, n (%) [2, 9]: 6 | TEAE: General Disorders and Administration Site Conditions, n (%) [2, 9]: 1 | TEAE: Injury, Poisoning, and Procedural Complications, n (%) [2, 9]: 4 | TEAE: Respiratory, Thoracic, and Mediastinal Disorders, n (%) [2, 9]: 5 | TEAE: Skin and Subcutaneous Tissue Disorders, n (%) [2, 9]: 3 | TEAE: Vascular Disorders, n (%) [2, 9]: 2 | Study treatment discontinued due to adverse event of mood disturbance, subjects n (%) ([2]; Part B rivaroxaban N=64): 1 (1.6%) | AEs related to Study Agent, n (%) [2, 10]: 20 (31.3%) | SAEs related to Study Agent, n (%) [2, 10]: 1 (1.6%) | TEAEs resulting in Permanent Discontinuation of Study Agent, n (%) [2, 10]: 2 (3.1%) | All TEAEs (subjects with 1 or more), n (%) [2, 11]: 55 (85.9%) and 55 (86%) | All TESAEs (subjects with 1 or more serious adverse events), n (%) [2, 11]: 18 (28.1%) and 18 (28%) | Serious adverse event: Infections, n (%) [2, 11]: 5 (8%) | Serious adverse event: Pleural Effusion, n (%) [2, 11]: 9 (14%) | Serious adverse event: Respiratory, Thoracic, and Mediastinal Disorders, n (%) [2, 11]: 9 (14%) | TEAE: Gastrointestinal Disorders, n (%) [2, 11]: 19 (29.7%) and 19 (30%) | TEAE: General Disorders and Administration Site Conditions, n (%) [2, 11]: 17 (26.6%) and 17 (27%) | TEAE: Injury, Poisoning, and Procedural Complications, n (%) [2, 11]: 18 (28.1%) and 18 (28%) | TEAE: Respiratory, Thoracic, and Mediastinal Disorders, n (%) [2, 11]: 29 (45.3%) and 29 (45%) | TEAE: Skin and Subcutaneous Tissue Disorders, n (%) [2, 11]: 19 (29.7%) and 19 (30%) | TEAE: Vascular Disorders, n (%) [2, 11]: 3 (4.7%) and 3 (5%) | SAEs, % of subjects [2, 12]: (28.1%) | SAEs, No. of subjects with event [2, 12]: 18/64 | New safety signals ([2]; UNIVERSE study): no new safety signals | Arterial/intracardiac thrombosis, subjects n (%) [3]: 0 | Primary efficacy outcome (any thrombotic event), subjects n (%) [3]: 1 (8.3%) and 1 (8%) | Pulmonary embolism, subjects n (%) [3]: 0 | Excess number of events: CRNM bleeding [4, 13]: −25.7 events per 1,000 subjects | Excess number of events: SAEs [4, 13]: 46.0 events per 1,000 subjects | Excess number of events: all-cause mortality [4, 13]: 0.0 events per 1,000 subjects | Excess number of events: any thrombotic event (primary efficacy outcome) [4, 13]: −72.6 events per 1,000 subjects | Excess number of events: arterial/intracardiac thrombosis [4, 13]: 0.0 events per 1,000 subjects | Excess number of events: fall in hemoglobin ≥2 g/dL or transfusion of the equivalent ≥2 units [4, 13]: 15.6 events per 1,000 subjects | Excess number of events: fatal or critical site bleeding [4, 13]: 0.0 events per 1,000 subjects | Excess number of events: ischemic stroke [4, 13]: −29.4 events per 1,000 subjects | Excess number of events: major and clinically relevant non-major bleeding [4, 13]: −10.1 events per 1,000 subjects | Excess number of events: major bleeding (primary safety outcome) [4, 13]: 15.6 events per 1,000 subjects | Excess number of events: pulmonary embolism [4, 13]: 15.6 events per 1,000 subjects | Excess number of events: trivial (minimal) bleeding [4, 13]: −24.8 events per 1,000 subjects | Excess number of events: venous thromboembolism [4, 13]: −43.2 events per 1,000 subjects | Excess number of events: venous thrombosis [4, 13]: −58.8 events per 1,000 subjects | NNH: CRNM bleeding [4, 14]: −39 | NNH: major and clinically relevant non-major bleeding [4, 14]: −99 | NNH: trivial (minimal) bleeding [4, 14]: −41 | NNT: any thrombotic event (primary efficacy outcome) [4, 14]: −14 | NNT: ischemic stroke [4, 14]: −34 | NNT: venous thromboembolism [4, 14]: −24 | NNT: venous thrombosis [4, 14]: −17 | NNH: SAEs [4, 15]: 21 | NNH: fall in hemoglobin ≥2 g/dL or transfusion of the equivalent ≥2 units [4, 15]: 64 | NNH: major bleeding (primary safety outcome) [4, 15]: 64 | NNT: pulmonary embolism [4, 15]: 64 | Less events of clinically relevant non-major bleeding expected than with aspirin [4, 16]: 25 events | More events of ISTH major bleeding expected than with aspirin [4, 16]: 16 events | Thrombotic events (primary efficacy outcome) expected to be prevented compared with aspirin [4, 16]: 73 events
